The target of one test is SARS-CoV-2 3CL^pro (Severe acute respiratory syndrome coronavirus 2, UniProt P0DTD1). The experiment in a line: SARS-CoV-2 3CLpro fluorogenic. Particulars: for inhibition of 3CL^pro in screen: 10 μM drug, hit of 1,068 or 2,701 FDA-approved drug collection. The test is classed as biochemical.
For the next test, the system named is COVID-19 patients. Particulars: cited from earlier work.
The subject of a further test is SARS-CoV-2. The following applies: cited from earlier work.
Test [1] has as its system SARS-CoV-2 in human lung cells. Particulars: in vitro assay; cited from earlier work.
For the next test, the target named is SARS-CoV-2 PL^pro (Severe acute respiratory syndrome coronavirus 2, UniProt P0DTD1). The experiment in a line: SARS-CoV-2 PLpro fluorogenic inhibition assay: screening at 10 μM and IC50. The test is classed as biochemical.
The next test deals with SARS-CoV-2 virus. In kind it is cell-based. Particulars: for selectivity index (SI): derived from CC50 and EC50.
A further test relates to SARS-CoV. Particulars: read-out: EC50 against SARS-CoV; cited from earlier work.
Where [2] appears, read: read-out: EC50 against SARS-CoV-2 in vitro.

Where two headings read alike, the source gives them in different places.

Turning to `CC(C)(C)NC(=O)N[C@H](C(=O)N1C[C@H]2[C@@H]([C@H]1C(=O)NC(CC1CCC1)C(=O)C(N)=O)C2(C)C)C(C)(C)C` (stereo partly drawn) [Boceprevir], the “inhibition of 3CL^pro in screen” value against SARS-CoV-2 3CL^pro is “active at 10 μM”.

Take `O=c1c2ccccc2[se]n1-c1ccccc1` [Ebselen]: at SARS-CoV-2 3CL^pro, the “inhibition of 3CL^pro in screen” value is “active at 10 μM”.

Regarding `CCC(CC)COC(=O)[C@H](C)N[P@](=O)(OC[C@H]1O[C@@](C#N)(c2ccc3c(N)ncnn23)[C@H](O)[C@@H]1O)Oc1ccccc1` [Remdesivir], in the test on COVID-19 patients, the “benefit in clinical trials on COVID-19 patients” value was 68%. In the test on SARS-CoV-2 (read-out: EC50, SARS-CoV-2 viral replication), the EC50 was 700 nM.

In the case of `CCN(CC)CCCC(C)Nc1ccnc2cc(Cl)ccc12` (stereo not drawn) [chloroquine], in test [1], the “inhibitory effects on SARS-CoV-2 in human lung cells” value is on record as “no inhibitory effects”. Further, the EC50 in the test with SARS-CoV-2 (setting [2]) was 1130 nM.

For `NC(=O)c1nc(F)c[nH]c1=O` [favipiravir], in the test with SARS-CoV-2, the “inhibition of SARS-CoV-2 replication” value was “weak inhibition”.

In the case of `CCN(CCO)CCCC(C)Nc1ccnc2cc(Cl)ccc12` (stereo not drawn) [hydroxychloroquine], the “clinical benefit against COVID-19” value with COVID-19 patients is listed as “no clinical benefit”. For the same compound, the “inhibition of SARS-CoV-2 in vitro” value in the test with SARS-CoV-2 was “shown to inhibit SARS-CoV-2 in vitro”.

Compound `N[C@@H](Cc1cc(I)c(Oc2cc(I)c(O)c(I)c2)c(I)c1)C(=O)O` [levothyroxine] gave an IC50 on SARS-CoV-2 PL^pro of 15.3 ± 4.2 µM. In the test with SARS-CoV-2 virus, the “inhibition of virus, postentry treatment” value is “postentry treatment could not inhibit the virus”; the “reduction of viral plaques, full-time treatment” value (shortened to “reduction of viral plaques”) was “effective in reducing viral plaques”; the “selectivity index (SI)” value was over 14.3. The same compound came in with an IC50 on SARS-CoV-2 3CL^pro of 19.2 ± 1.2 µM.

Consider `CN(C)C(=O)C(CCN1CCC(O)(c2ccc(Cl)cc2)CC1)(c1ccccc1)c1ccccc1` [loperamide], for which, in the test on SARS-CoV-2 virus, the “inhibition of virus, postentry treatment” value is given as “postentry treatment could still inhibit the virus” and the “reduction of viral plaques” value is reported as “effective in reducing viral plaques”. The “antiviral activity, entry step” value in the test with SARS-CoV-2 virus (entry treatment) is on record as “not the entry step”.

On SARS-CoV-2 PL^pro, `COC(=O)C1=C(C)NC(C)=C(C(=O)OCCN2CCN(C(c3ccccc3)c3ccccc3)CC2)C1c1cccc([N+](=O)[O-])c1` (stereo not drawn) [manidipine-2HCl] returned a half-inhibitory concentration (IC50) of 14.2 ± 1.7 µM. Also, in the test on SARS-CoV-2 virus, the “inhibition of virus, postentry treatment” value is reported as “postentry treatment could still inhibit the virus”; the “reduction of viral plaques” value is “effective in reducing viral plaques”; the “selectivity index (SI)” value is over 6.9. Also, at SARS-CoV-2 3CL^pro, the midpoint of inhibition, the IC50, lay at 10.4 ± 1.6 µM.

As to `CNCCCC12CCC(c3ccccc31)c1ccccc12` [maprotiline], in the test with SARS-CoV-2 virus, the “antiviral activity, entry step” value is listed as “not the entry step”; the “inhibition of virus, postentry treatment” value is on record as “postentry treatment could still inhibit the virus”; the “reduction of viral plaques” value is recorded as “effective in reducing viral plaques”.

For the compound `Nc1nc2c(ncn2CCC(CO)CO)c(=O)[nH]1` [penciclovir], the “inhibition of SARS-CoV-2 replication” value with SARS-CoV-2 was “weak inhibition”.

On SARS-CoV-2 PL^pro, `COC(=O)[C@H]1[C@H]2C[C@@H]3c4[nH]c5cc(OC)ccc5c4CCN3C[C@H]2C[C@@H](OC(=O)c2cc(OC)c(OC)c(OC)c2)[C@@H]1OC` [reserpine] gave a half-inhibitory concentration (IC50) of 5.7 ± 0.7 µM. Moreover, in the test on SARS-CoV-2 virus, the “reduction of viral plaques” value was “effective in reducing viral plaques” and the “selectivity index (SI)” value was over 15.2. The concentration giving a half-maximal response (EC50) in the test with SARS-CoV was 3.4 µM.

Consider `NC(=O)c1ncn([C@@H]2O[C@H](CO)[C@@H](O)[C@H]2O)n1` [ribavirin], for which the “inhibition of SARS-CoV-2 replication” value in the test with SARS-CoV-2 is given as “weak inhibition”.

`Cc1ccc(C(=O)c2cc(O)c(O)c([N+](=O)[O-])c2)cc1` [tolcapone]: the “antiviral activity (figure not shown)” value with SARS-CoV-2 virus (tolcapone) is “weak antiviral activity only at 50 μM”. Moreover, at SARS-CoV-2 3CL^pro, the concentration for half-maximal inhibition (IC50) was 7.9 µM and the “inhibition of 3CL^pro in screen” value is recorded as “active at 10 μM”.

Consider ivermectin, for which the EC50 in the test with SARS-CoV-2 (setting [2]) is 2500 nM.

Turning to lopinavir/ritonavir, in the test with SARS-CoV-2, the “inhibition of SARS-CoV-2 replication” value is given as “weak inhibition”.

In general, EC50 refers to the concentration needed to bring the measured effect to its halfway point. In general, IC50 refers to the concentration at which inhibition is half-maximal.
